Source: patent US8691820B2, “CDK inhibitors” (Curis, Inc., priority 2008, dated 2014)

How the values were obtained:
CDK2/cyclinA = biological target: T1, CDK2/cyclinA (Homo sapiens, UniProt P24941); assay: CDK2 kinase assay (33P-ATP, Histone H1 substrate); assay type: biochemical; settings: 1 μM ATP, 5 μM Histon H1, 2 hours at room temperature
T1 construct: C-terminal 6His-tagged human full length cdk2 (MW=35 kDa); 6His (C); made in house; host or cells: Sf21 insect cells (baculovirus)
From the text: CDK2/cyclinA (Accession number for CDK2; EMBL M68520, for cyclin A; EMBL X51688): C-terminal 6His-tagged human full length cdk2 (MW=35 kDa), and N-terminal GST-tagged human full length cyclin A (MW=75 kDa) were expressed individually with baculovirus system in Sf21 insect cells. Recombinant cdk2 protein was purified with Ni2+/NTA agarose and then activated using CAK and repurified by Q Sepharose and Ni2+/NTA agarose. Recombinant cyclin A was purified using glutathione-agarose. They were then mixed in vitro to form protein complex. Recombinant protein complex was measured to be 67% in purity with SDS-PAGE and Coomassie blue staining. Specific activity of purified enzyme was measured to be 158 U/mg, where one unit of cdk2/cyclinA activity is defined as 1 nmol phosphate incorporated into 0.1 mg/ml histone H1 per minute at 30° C. with a final ATP concentration of […]. Enzyme was stored at a concentration of 0.1 mg/ml in 50 mM Tris/HCl pH7.5, 150 mM NaCl, 0.1 mM EGTA, 0.03% Brij-35, 270 mM sucrose, 1 mM benzamidine, 0.2 mM PMSF, 0.1% 2-mercaptoethanol. Frozen solution.
Histon H1 (Substrate for CDK2): Histone H1 (Sigma cat#H4524), was purified as a lysine rich fraction from calf thymus with 93% purity (MW=21.5 kDa). Purified protein was stored at a concentration of 20 mg/ml=930 μM in distilled water.
[…] (0.5 nmol) and 5 μM Histon H1 were mixed in the reaction buffer (20 mM HEPES (pH 7.5), 10 mM MgCl2, 1 mM EGTA, 0.02% Brij 35, 0.02 mg/ml BSA, 0.1 mM Na3VO4, 2 mM DTT) with final concentration of 1 μM ATP and 1% DMSO. The reaction was incubated for 2 hours at room temperature and conversion rate of ATP is about 4.5%. An equal volume of 25% TCA was added to stop the reaction and precipitate the labeled peptides. Precipitated proteins were trapped onto glass fiber B filterplates and excess […] p33 ATP was washed off. The plates were allowed to air-dry prior to the addition of 30 uL/well of Packard Microscint 20. The amount of incorporated isotope was measured using a Perkin Elmer TopCount plate reader. Different concentrations of compounds were added to reaction to assess the activity of compounds to inhibit […]. IC50 was calculated using Prism software with sigmoidal dose-response curve fitting.
The following TABLE B lists compounds representative of the invention and their activity in the CDK2 assay. In this assay, the following grading was used: I≧10 μM, 10 μM>II>1 μM, 1 μM>III>0.1 μM, and IV≦0.1 μM for IC50.

CDK1 = CDK1 (Homo sapiens, UniProt P06493); assay: CDK1 kinase inhibition (Table B); assay type: biochemical
CDK1, sequence (P06493 whole entry): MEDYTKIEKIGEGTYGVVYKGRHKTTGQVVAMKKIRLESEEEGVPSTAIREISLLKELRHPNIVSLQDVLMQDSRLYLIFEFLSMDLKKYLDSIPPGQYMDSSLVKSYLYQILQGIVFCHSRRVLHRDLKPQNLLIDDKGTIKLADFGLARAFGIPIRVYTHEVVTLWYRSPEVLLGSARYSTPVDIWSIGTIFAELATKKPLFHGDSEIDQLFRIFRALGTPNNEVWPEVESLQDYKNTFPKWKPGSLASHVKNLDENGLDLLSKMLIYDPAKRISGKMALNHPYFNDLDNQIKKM
CDK1, sequence (P14635 whole entry partner): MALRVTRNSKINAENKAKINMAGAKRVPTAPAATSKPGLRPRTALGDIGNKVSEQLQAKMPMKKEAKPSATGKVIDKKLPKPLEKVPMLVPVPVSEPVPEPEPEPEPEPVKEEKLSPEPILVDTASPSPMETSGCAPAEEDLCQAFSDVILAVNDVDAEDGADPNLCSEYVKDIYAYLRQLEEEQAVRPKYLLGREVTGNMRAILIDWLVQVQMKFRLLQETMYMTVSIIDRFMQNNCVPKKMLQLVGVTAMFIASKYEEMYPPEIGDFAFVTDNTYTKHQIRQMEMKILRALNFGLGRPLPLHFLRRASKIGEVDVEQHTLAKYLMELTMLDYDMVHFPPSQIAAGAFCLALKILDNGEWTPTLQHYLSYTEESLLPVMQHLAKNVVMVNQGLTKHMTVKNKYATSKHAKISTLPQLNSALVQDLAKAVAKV

CDK3 = CDK3 (Homo sapiens, UniProt Q00526); assay: CDK3 kinase inhibition (Table B); assay type: biochemical
CDK3, sequence (Q00526 whole entry): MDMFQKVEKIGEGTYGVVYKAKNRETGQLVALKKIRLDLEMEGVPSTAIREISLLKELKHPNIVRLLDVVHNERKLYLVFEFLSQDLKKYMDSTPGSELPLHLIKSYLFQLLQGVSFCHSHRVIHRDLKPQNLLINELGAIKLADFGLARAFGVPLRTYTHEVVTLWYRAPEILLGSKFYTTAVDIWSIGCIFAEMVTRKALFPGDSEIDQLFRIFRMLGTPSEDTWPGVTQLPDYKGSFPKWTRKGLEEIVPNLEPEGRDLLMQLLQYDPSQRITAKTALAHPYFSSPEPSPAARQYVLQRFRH
CDK3, sequence (P24864 whole entry partner): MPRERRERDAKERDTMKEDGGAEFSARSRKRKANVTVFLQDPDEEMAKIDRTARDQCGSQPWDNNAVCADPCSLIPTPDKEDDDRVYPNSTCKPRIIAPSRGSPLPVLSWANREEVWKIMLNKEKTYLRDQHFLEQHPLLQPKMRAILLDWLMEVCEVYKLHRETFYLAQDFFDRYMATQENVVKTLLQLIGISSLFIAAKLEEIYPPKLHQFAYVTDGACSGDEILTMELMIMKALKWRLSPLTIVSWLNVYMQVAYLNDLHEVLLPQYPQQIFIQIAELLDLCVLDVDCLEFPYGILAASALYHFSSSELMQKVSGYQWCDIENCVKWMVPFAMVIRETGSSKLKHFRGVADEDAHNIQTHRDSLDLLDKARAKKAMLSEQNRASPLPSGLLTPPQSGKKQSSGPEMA

CDK4 = CDK4 (Homo sapiens, UniProt P11802); assay: CDK4 kinase inhibition (Table B); assay type: biochemical
CDK4, sequence (P11802 whole entry): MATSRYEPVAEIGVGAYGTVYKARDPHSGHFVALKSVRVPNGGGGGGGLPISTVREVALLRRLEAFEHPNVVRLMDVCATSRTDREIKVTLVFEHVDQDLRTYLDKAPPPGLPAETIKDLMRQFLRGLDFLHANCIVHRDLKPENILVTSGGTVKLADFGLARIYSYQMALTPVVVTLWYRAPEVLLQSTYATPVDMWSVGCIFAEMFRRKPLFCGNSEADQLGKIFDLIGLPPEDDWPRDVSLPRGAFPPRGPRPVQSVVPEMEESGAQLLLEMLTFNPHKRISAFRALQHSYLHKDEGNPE
CDK4, sequence (P24385 whole entry partner): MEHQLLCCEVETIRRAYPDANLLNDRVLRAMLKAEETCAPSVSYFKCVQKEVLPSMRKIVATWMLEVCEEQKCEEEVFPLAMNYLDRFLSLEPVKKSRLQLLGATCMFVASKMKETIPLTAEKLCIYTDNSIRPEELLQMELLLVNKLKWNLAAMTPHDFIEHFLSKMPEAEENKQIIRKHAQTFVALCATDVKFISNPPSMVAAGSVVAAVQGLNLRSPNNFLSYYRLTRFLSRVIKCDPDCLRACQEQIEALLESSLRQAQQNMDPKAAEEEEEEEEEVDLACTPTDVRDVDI

CDK9 = CDK9 (Homo sapiens, UniProt P50750); assay: CDK9 kinase inhibition (Table B); assay type: biochemical
CDK9, sequence (P50750 whole entry): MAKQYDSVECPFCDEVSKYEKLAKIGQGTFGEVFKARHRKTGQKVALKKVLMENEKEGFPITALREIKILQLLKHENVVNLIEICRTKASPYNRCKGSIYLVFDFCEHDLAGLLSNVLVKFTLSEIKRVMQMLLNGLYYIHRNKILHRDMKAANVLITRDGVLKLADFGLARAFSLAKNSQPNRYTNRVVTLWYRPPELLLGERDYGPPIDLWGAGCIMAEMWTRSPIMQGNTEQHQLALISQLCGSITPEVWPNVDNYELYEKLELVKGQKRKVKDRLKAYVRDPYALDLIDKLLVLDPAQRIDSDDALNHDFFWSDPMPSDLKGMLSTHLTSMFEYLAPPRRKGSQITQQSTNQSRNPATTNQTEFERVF
CDK9, sequence (O60563 whole entry partner): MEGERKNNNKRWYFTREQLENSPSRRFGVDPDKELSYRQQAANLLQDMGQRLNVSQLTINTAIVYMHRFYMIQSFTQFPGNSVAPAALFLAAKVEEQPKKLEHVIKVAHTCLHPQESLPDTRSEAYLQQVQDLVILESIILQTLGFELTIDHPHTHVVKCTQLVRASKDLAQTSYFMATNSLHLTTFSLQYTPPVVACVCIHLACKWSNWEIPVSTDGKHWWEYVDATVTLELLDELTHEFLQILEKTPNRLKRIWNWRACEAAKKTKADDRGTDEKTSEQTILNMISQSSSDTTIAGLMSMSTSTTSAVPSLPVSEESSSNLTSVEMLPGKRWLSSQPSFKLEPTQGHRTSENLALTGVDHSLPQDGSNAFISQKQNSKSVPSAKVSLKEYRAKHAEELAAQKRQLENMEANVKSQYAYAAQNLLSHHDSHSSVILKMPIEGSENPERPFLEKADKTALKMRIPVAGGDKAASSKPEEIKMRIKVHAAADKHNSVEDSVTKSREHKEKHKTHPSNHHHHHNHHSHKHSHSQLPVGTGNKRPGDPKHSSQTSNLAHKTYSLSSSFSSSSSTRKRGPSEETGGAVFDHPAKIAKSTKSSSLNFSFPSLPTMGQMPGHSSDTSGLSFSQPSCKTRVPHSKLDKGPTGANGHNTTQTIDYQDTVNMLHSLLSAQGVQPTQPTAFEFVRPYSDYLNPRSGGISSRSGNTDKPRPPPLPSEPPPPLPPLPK

IC50 (CDK2/cyclinA) [nM] | SMILES | other results
≤ 100 | CC(C)(C)c1cnc(CSc2cnc(NC(=O)CCCCCCC(=O)Nc3ccccc3N)s2)o1 [Compound 18, N^1-(2-aminophenyl)-N^8-(5-((5-tert-butyloxazol-2-yl)methylthio)thiazol-2-yl)octanediamide] | IC50 (CDK1): ≤ 100 nM; IC50 (CDK3): ≤ 100 nM; IC50 (CDK4): 100 to 1000 nM; IC50 (CDK9): ≤ 100 nM
≤ 100 | CC(C)(C)c1cnc(CSc2cnc(NC(=O)CCCCCCC(=O)Nc3ccc(C(F)(F)F)cc3N)s2)o1 [Compound 25, N^1-(2-amino-4-(trifluoromethyl)phenyl)-N^8-(5-((5-tert-butyloxazol-2-yl)methylthio)thiazol-2-yl)octanediamide] | melting point: 114 to 116 °C
≤ 100 | CC(C)(C)c1cnc(CSc2cnc(NC(=O)Cc3ccc(OCCCC(=O)Nc4ccccn4)cc3)s2)o1 [Compound 64, 4-(4-(2-(5-((5-tert-butyloxazol-2-yl)methylthio)thiazol-2-ylamino)-2-oxoethyl)phenoxy)-N-(pyridin-2-yl)butanamide] | melting point: 126 to 129 °C
≤ 100 | CC(C)N(O)C(=O)CCCCCCC(=O)Nc1ncc(SCc2ncc(C(C)(C)C)o2)s1 [Compound 5, N^1-(5-((5-tert-butyloxazol-2-yl)methylthio)thiazol-2-yl)-N^8-hydroxy-N^8-isopropyloctanediamide] | IC50 (CDK1): ≤ 100 nM; IC50 (CDK3): ≤ 100 nM; IC50 (CDK4): 100 to 1000 nM; IC50 (CDK9): ≤ 100 nM
≤ 100 | CC(C)(C)c1cnc(CSc2cnc(NC(=O)CCCCCCC(=O)n3nnc4ccccc43)s2)o1 [Compound 40, 8-(1H-benzo[d][1,2,3]triazol-1-yl)-N-(5-((5-tert-butyloxazol-2-yl)methylthio)thiazol-2-yl)-8-oxooctanamide] | 
≤ 100 | CC(C)(C)c1cnc(CSc2cnc(NC(=O)CCCCCCC(=O)NOC3CCCCO3)s2)o1 (stereo not shown) [Compound 3, N^1-(5-((5-tert-butyloxazol-2-yl)methylthio)thiazol-2-yl)-N^8-(tetrahydro-2H-pyran-2-yloxy)octanediamide] | 
≤ 100 | CC(C)(C)c1cnc(CSc2cnc(NC(=O)Cc3cccc(OCCCC(=O)Nc4ccccc4N)c3)s2)o1 [Compound 56, N-(2-aminophenyl)-4-(3-(2-(5-((5-tert-butyloxazol-2-yl)methylthio)thiazol-2-ylamino)-2-oxoethyl)phenoxy)butanamide] | 
≤ 100 | CC(C)(C)c1cnc(CSc2cnc(NC(=O)CCCCCCC(=O)Nc3cccc(N)c3)s2)o1 [Compound 22, N^1-(3-aminophenyl)-N^8-(5-((5-tert-butyloxazol-2-yl)methylthio)thiazol-2-yl)octanediamide] | 
≤ 100 | CC(C)(C)c1cnc(CSc2cnc(NC(=O)CCCCCCC(=O)Nc3cc(C(F)(F)F)ccc3N)s2)o1 [Compound 24, N^1-(2-amino-5-(trifluoromethyl)phenyl)-N^8-(5-((5-tert-butyloxazol-2-yl)methylthio)thiazol-2-yl)octanediamide] | melting point: 77 to 82 °C
≤ 100 | CC(C)(C)c1cnc(CSc2cnc(NC(=O)Cc3ccc(OCCCC(=O)Nc4ccc(F)cc4N)cc3)s2)o1 [Compound 59, N-(2-amino-4-fluorophenyl)-4-(4-(2-(5-((5-tert-butyloxazol-2-yl)methylthio)thiazol-2-ylamino)-2-oxoethyl)phenoxy)butanamide] | 
≤ 100 | CC(C)(C)c1cnc(CSc2cnc(NC(=O)CCCCCCC(=O)n3nc(N)c4ccccc43)s2)o1 [Compound 48] | 
≤ 100 | CC(C)(C)c1cnc(CSc2cnc(NC(=O)Cc3ccc(OCCCC(=O)Nc4cc(F)ccc4N)cc3)s2)o1 [Compound 60, N-(2-amino-5-fluorophenyl)-4-(4-(2-(5-((5-tert-butyloxazol-2-yl)methylthio)thiazol-2-ylamino)-2-oxoethyl)phenoxy)butanamide] | 
≤ 100 | CC(C)(C)c1cnc(CSc2cnc(NC(=O)CCCCCCC(=O)N(O)Cc3ccccc3)s2)o1 [Compound 6, N^1-benzyl-N^8-(5-((5-tert-butyloxazol-2-yl)methylthio)-thiazol-2-yl)-N^1-hydroxyoctanediamide] | 
≤ 100 | CC(Sc1cnc(NC(=O)Cc2ccc(OCCCC(=O)Nc3ccccc3N)cc2)s1)c1ncc(C(C)(C)C)o1 (stereo not shown) [Compound 58, N-(2-aminophenyl)-4-(4-(2-(5-(1-(5-tert-butyloxazol-2-yl)ethylthio)thiazol-2-ylamino)-2-oxoethyl)phenoxy)butanamide] | 
≤ 100 | CC(C)(C)c1cnc(CSc2cnc(NC(=O)CCCCCCC(=O)Nc3ccccc3)s2)o1 [Compound 9, N^1-(5-((5-tert-butyloxazol-2-yl)methylthio)thiazol-2-yl)-N^8-phenyloctanediamide] | 
≤ 100 | CC(C)(C)c1cnc(CSc2cnc(NC(=O)CCCCCCC(=O)Nc3[nH]ncc3-c3ccc(F)cc3)s2)o1 [Compound 45] | 
100 to 1000 | CC(C)(C)c1cnc(CSc2cnc(NC(=O)C(=O)Nc3ccccc3)s2)o1 [Compound 11] | 
1000 to 10000 | CN(O)C(=O)/C=C/c1ccc(C(=O)Nc2ncc(SCc3ncc(C(C)(C)C)o3)s2)cc1 [Compound 39, (E)-N-(5-((5-tert-butyloxazol-2-yl)methylthio)thiazol-2-yl)-4-(3-(hydroxy(methyl)amino)-3-oxoprop-1-enyl)benzamide] | 
≤ 100 | CONC(=O)CCCOc1ccc(CC(=O)Nc2ncc(SCc3ncc(C(C)(C)C)o3)s2)cc1 [Compound 31, 4-(4-(2-(5-((5-tert-butyloxazol-2-yl)methylthio)thiazol-2-ylamino)-2-oxoethyl)phenoxy)-N-methoxybutanamide] | 
≤ 100 | CC(C)(C)c1cnc(CSc2cnc(NC(=O)CCCCC(=O)Nc3ccccc3N)s2)o1 [Compound 16, N1-(2-aminophenyl)-N6-(5-((5-tert-butyloxazol-2-yl)methylthio)thiazol-2-yl)adipamide] | 
≤ 100 | CC(C)(C)c1cnc(CSc2cnc(NC(=O)CCCCCC(=O)Nc3ccccc3N)s2)o1 [Compound 17, N1-(2-aminophenyl)-N7-(5-((5-tert-butyloxazol-2-yl)methylthio)thiazol-2-yl)heptanediamide] | 
≤ 100 | CN(O)C(=O)CCCCCCC(=O)Nc1ncc(SCc2ncc(C(C)(C)C)o2)s1 [Compound 4, N^1-(5-((5-tert-butyloxazol-2-yl)methylthio)thiazol-2-yl)-N^8-hydroxy-N^8-methyloctanediamide] | 
≤ 100 | CN1OC(=O)CC1c1ccc(C(=O)Nc2ncc(SCc3ncc(C(C)(C)C)o3)s2)cc1 (stereo not shown) [Compound 51, N-(5-((5-tert-butyloxazol-2-yl)methylthio)thiazol-2-yl)-4-(2-methyl-5-oxoisoxazolidin-3-yl)benzamide] | 
≤ 100 | CC(C(=O)Nc1ncc(SCc2ncc(C(C)(C)C)o2)s1)c1ccc(OCCCC(=O)Nc2ccccc2N)cc1 (stereo not shown) [Compound 57, N-(2-aminophenyl)-4-(4-(1-(5-((5-tert-butyloxazol-2-yl)methylthio)thiazol-2-ylamino)-1-oxopropan-2-yl)phenoxy)butanamide] | 
≤ 100 | CC(C)(C)c1cnc(CSc2cnc(NC(=O)CCCCCCC(=O)Nc3ccc(N)cc3)s2)o1 [Compound 21, N^1-(4-aminophenyl)-N^8-(5-((5-tert-butyloxazol-2-yl)methylthio)thiazol-2-yl)octanediamide] | 

SMILES | IC50 (CDK2/cyclinA) [nM] | other results
CC(C)(C)c1cnc(CSc2cnc(NC(=O)Oc3ccc(OCCCC(=O)Nc4ccccc4N)cc3)s2)o1 [Compound 54, 4-(4-(2-Aminophenylamino)-4-oxobutoxy)phenyl 5-((5-tert-butyloxazol-2-yl)methylthio)thiazol-2-ylcarbamate] | ≤ 100 | 
